Each compound was assayed against T1, GLP-1 Receptor (Homo sapiens, UniProt P43220) (assay: GLP-1R agonist cAMP stimulation assay (HEK293/GLP1R/CRE-LUC cells, Cisbio cAMP dynamic 2 kit)). Conditions: HEK293/CRE-Luc cells stably expressing the GLP-1 Receptor, 30 min at 37° C.
T1 construct: host or cells: HEK293/CRE-Luc (HEK293/GLP1R/CRE-LUC)
Type: cell-based
Description: Activation of GLP-1 receptor is known to stimulate cyclic AMP (cAMP) production in cells which indicates primary coupling to the Gas subunit of the G protein heterotrimeric complex.
To optimize functional activity directed toward Gas coupling, a HEK293/CRE-Luc cell line developed by HDB stably expressing the GLP-1 Receptor was used. 200× concentration of compound working solutions were prepared (Agilent Technologies Bravo) with ½ log serial dilution in 384-well Echo LDV plate (Labcyte, Cat #LP-0200). […] 200× concentration of compound working solutions were moved to 384-well white low volume plate (Greiner, Cat #784075) using Labcyte ECHO550. 1×10^5 cells/mL HEK293/GLP1R/CRE-LUC (HD Biosciences) cell suspensions prepared with assay buffer [DPBS containing 0.5 mM IBMX (Sigma, Cat #15879) and 0.1% BSA (GENVIEW, Cat #FA016-100g)], 10 μL cell suspensions were added to each well of previous generated assay plate which already contains […] compound at 200×concentration using ThermoFisher Multidrop Combi (1000 cells/well). Seal the plate and incubate at 37° C. with 5% CO2 for 30 min.
After incubation the cAMP assay signal was generated using cAMP dynamic 2 Kit (Cisbio). 5 μL cAMP-d2 working solution was added to each well, followed with 5 μL Anti-cAMP antibody-cryptate working solution added to each well using ThermoFisher Multidrop Combi. Incubate at room temperature for 1 hour protected from light. Read the fluorescence at 665 and 615 nm with Reader PerkinElmer EnVision.

T1 sequence (P43220 24-463, species assumed): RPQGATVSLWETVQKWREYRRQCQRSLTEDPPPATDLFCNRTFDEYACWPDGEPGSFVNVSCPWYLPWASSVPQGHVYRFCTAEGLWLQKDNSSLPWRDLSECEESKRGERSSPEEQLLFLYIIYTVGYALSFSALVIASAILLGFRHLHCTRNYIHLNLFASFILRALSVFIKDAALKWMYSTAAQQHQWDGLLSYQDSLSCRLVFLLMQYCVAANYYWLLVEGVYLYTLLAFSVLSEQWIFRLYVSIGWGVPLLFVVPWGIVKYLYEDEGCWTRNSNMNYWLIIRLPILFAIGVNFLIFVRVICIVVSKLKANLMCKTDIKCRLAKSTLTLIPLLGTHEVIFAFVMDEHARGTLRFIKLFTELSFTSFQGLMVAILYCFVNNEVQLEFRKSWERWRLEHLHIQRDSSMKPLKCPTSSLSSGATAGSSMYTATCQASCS

| Structure (SMILES) | EC50 [nM] |
| --- | --- |
| Fc1ccc(COc2cccc(C3CCN(Cc4nc5cc(-c6nnc(C(F)(F)F)[nH]6)ncc5n4C[C@@H]4CCO4)CC3)n2)c2c1OCO2 [Compound 17, (S)-2-((4-(6-((7-fluorobenzo[d][1,3]dioxol-4-yl)methoxy)pyridin-2-yl)piperidin-1-yl)methyl)-3-(oxetan-2-ylmethyl)-6-(5-(trifluoromethyl)-4H-1,2,4-triazol-3-yl)-3H-imidazo[4,5-c]pyridine] | < 1 |
| FC1(F)Oc2cccc(COc3cccc(C4CCN(Cc5nc6cc(-c7nnc(C(F)(F)F)[nH]7)ncc6n5C[C@@H]5CCO5)CC4)n3)c2O1 [Compound 18, (S)-2-((4-(6-((2,2-difluorobenzo[d][1,3]dioxol-4-yl)methoxy)pyridin-2-yl)piperidin-1-yl)methyl)-3-(oxetan-2-ylmethyl)-6-(5-(trifluoromethyl)-4H-1,2,4-triazol-3-yl)-3H-imidazo[4,5-c]pyridine] | < 1 |
| [2H]C1([2H])Oc2cccc(COc3cccc(C4CCN(Cc5nc6cc(-c7nnc(C(F)(F)F)[nH]7)ncc6n5C[C@@H]5CCO5)CC4)n3)c2O1 [Compound 19, (S)-2-((4-(6-((benzo[d][1,3]dioxol-4-yl-2,2-d2)methoxy)pyridin-2-yl)piperidin-1-yl)methyl)-3-(oxetan-2-ylmethyl)-6-(5-(trifluoromethyl)-4H-1,2,4-triazol-3-yl)-3H-imidazo[4,5-c]pyridine] | < 1 |
| FC(F)(F)c1nnc(-c2cc3nc(CN4CCC(c5cccc(OCc6nc7ccccc7s6)n5)CC4)n(C[C@@H]4CCO4)c3cn2)[nH]1 [Compound 20, (S)-2-(((6-(1-((3-(oxetan-2-ylmethyl)-6-(5-(trifluoromethyl)-4H-1,2,4-triazol-3-yl)-3H-imidazo[4,5-c]pyridin-2-yl)methyl)piperidin-4-yl)pyridin-2-yl)oxy)methyl)benzo[d]thiazole] | < 1 |
| Cc1ccc(COc2cccc(C3CCN(Cc4nc5cc(-c6nnc(C(F)(F)F)[nH]6)ncc5n4C[C@@H]4CCO4)CC3)n2)nn1 [Compound 21, 3-methyl-6-{[(6-{1-[(3-{[(2S)-oxetan-2-yl]methyl}-6-[5-(trifluoromethyl)-4H-1,2,4-triazol-3-yl]-3H-imidazo[4,5-c]pyridin-2-yl)methyl]piperidin-4-yl}pyridin-2-yl)oxy]methyl}pyridazine] | < 1 |
| Fc1cn(C2CC2)nc1COc1cccc(C2CCN(Cc3nc4cc(-c5nnc(C(F)(F)F)[nH]5)ncc4n3C[C@@H]3CCO3)CC2)n1 [Compound 22, (S)-2-((4-(6-((1-cyclopropyl-4-fluoro-1H-pyrazol-3-yl)methoxy)pyridin-2-yl)piperidin-1-yl)methyl)-3-(oxetan-2-ylmethyl)-6-(5-(trifluoromethyl)-4H-1,2,4-triazol-3-yl)-3H-imidazo[4,5-c]pyridine] | 1 to 100 |
| C[C@]1(c2ccc(Cl)cc2F)Oc2cccc(C3CCN(Cc4nc5cc(C(=O)O)ncc5n4C[C@@H]4CCO4)CC3)c2O1 [Compound 23, 2-((4-((S)-2-(4-chloro-2-fluorophenyl)-2-methylbenzo[d][1,3]dioxol-4-yl)piperidin-1-yl)methyl)-3-(((S)-oxetan-2-yl)methyl)-3H-imidazo[4,5-c]pyridine-6-carboxylic acid] | < 1 |
| CNC(=O)c1cc2nc(CN3CCC(c4cccc5c4O[C@@](C)(c4ccc(Cl)cc4F)O5)CC3)n(C[C@@H]3CCO3)c2cn1 [Compound 24, 2-((4-((S)-2-(4-chloro-2-fluorophenyl)-2-methylbenzo[d][1,3]dioxol-4-yl)piperidin-1-yl)methyl)-N-methyl-3-(((S)-oxetan-2-yl)methyl)-3H-imidazo[4,5-c]pyridine-6-carboxamide] | < 1 |
| C[C@]1(c2ccc(Cl)cc2F)Oc2cccc(C3CCN(Cc4nc5cc(C(=O)NCC(F)(F)F)ncc5n4C[C@@H]4CCO4)CC3)c2O1 [Compound 25, 2-((4-((S)-2-(4-chloro-2-fluorophenyl)-2-methylbenzo[d][1,3]dioxol-4-yl)piperidin-1-yl)methyl)-3-(((S)-oxetan-2-yl)methyl)-N-(2,2,2-trifluoroethyl)-3H-imidazo[4,5-c]pyridine-6-carboxamide] | < 1 |
| COCCNC(=O)c1cc2nc(CN3CCC(c4cccc5c4O[C@@](C)(c4ccc(Cl)cc4F)O5)CC3)n(C[C@@H]3CCO3)c2cn1 [Compound 26, 2-((4-((S)-2-(4-chloro-2-fluorophenyl)-2-methylbenzo[d][1,3]dioxol-4-yl)piperidin-1-yl)methyl)-N-(2-methoxyethyl)-3-(((S)-oxetan-2-yl)methyl)-3H-imidazo[4,5-c]pyridine-6-carboxamide] | < 1 |
| C[C@]1(c2ccc(Cl)cc2F)Oc2cccc(C3CCN(Cc4nc5c(F)c(C(=O)O)ccc5n4C[C@@H]4CCO4)CC3)c2O1 [Compound 27, 2-((4-((S)-2-(4-chloro-2-fluorophenyl)-2-methylbenzo[d][1,3]dioxol-4-yl)piperidin-1-yl)methyl)-4-fluoro-1-(((S)-oxetan-2-yl)methyl)-1H-benzo[d]imidazole-5-carboxylic acid] | < 1 |
| O=C(O)c1cc2nc(CN3CCC(c4cccc(OCc5ccc(Cl)cc5F)n4)CC3)n(C[C@@H]3CCO3)c2cn1 [Compound 28, (S)-2-((4-(6-((4-chloro-2-fluorobenzyl)oxy)pyridin-2-yl)piperidin-1-yl)methyl)-3-(oxetan-2-ylmethyl)-3H-imidazo[4,5-c]pyridine-6-carboxylic acid] | < 1 |

The next lines start with the values.

| EC50 [nM] | Structure (SMILES) |
| --- | --- |
| < 1 | O=C(O)c1cc2nc(CN3CC=C(c4cccc(OCc5ccc(Cl)cc5F)n4)CC3)n(C[C@@H]3CCO3)c2cn1 [Compound 29, (S)-2-((6-((4-chloro-2-fluorobenzyl)oxy)-3′,6′-dihydro-[2,4′-bipyridin]-1′(2′H)-yl)methyl)-3-(oxetan-2-ylmethyl)-3H-imidazo[4,5-c]pyridine-6-carboxylic acid] |
| 1 to 100 | O=C(O)c1cc2nc(CN3CC=C(c4ccc(F)c(OCc5ccc(Cl)cc5F)c4)CC3)n(C[C@@H]3CCO3)c2cn1 [Compound 30, (S)-2-((4-(3-((4-chloro-2-fluorobenzyl)oxy)-4-fluorophenyl)-3,6-dihydropyridin-1(2H)-yl)methyl)-3-(oxetan-2-ylmethyl)-3H-imidazo[4,5-c]pyridine-6-carboxylic acid] |
| < 1 | COc1cc(Cl)ccc1COc1cc(C2=CCN(Cc3nc4cc(-c5nnc(C(F)(F)F)[nH]5)ncc4n3C[C@@H]3CCO3)CC2)ccc1F [Compound 31, (S)-2-((4-(3-((4-chloro-2-methoxybenzyl)oxy)-4-fluorophenyl)-3,6-dihydropyridin-1(2H)-yl)methyl)-3-(oxetan-2-ylmethyl)-6-(5-(trifluoromethyl)-4H-1,2,4-triazol-3-yl)-3H-imidazo[4,5-c]pyridine] |
| < 1 | NC(=O)c1nnc(-c2cc3nc(CN4CC=C(c5ccc(F)c(OCc6ccc(Cl)cc6F)c5)CC4)n(C[C@@H]4CCO4)c3cn2)[nH]1 [Compound 32, (S)-5-(2-((4-(3-((4-chloro-2-fluorobenzyl)oxy)-4-fluorophenyl)-3,6-dihydropyridin-1(2H)-yl)methyl)-3-(oxetan-2-ylmethyl)-3H-imidazo[4,5-c]pyridin-6-yl)-4H-1,2,4-triazole-3-carboxamide] |
| < 1 | N#Cc1nnc(-c2cc3nc(CN4CC=C(c5ccc(F)c(OCc6ccc(Cl)cc6F)c5)CC4)n(C[C@@H]4CCO4)c3cn2)[nH]1 [Compound 33, (S)-5-(2-((4-(3-((4-chloro-2-fluorobenzyl)oxy)-4-fluorophenyl)-3,6-dihydropyridin-1(2H)-yl)methyl)-3-(oxetan-2-ylmethyl)-3H-imidazo[4,5-c]pyridin-6-yl)-4H-1,2,4-triazole-3-carbonitrile] |
| < 1 | C[C@]1(c2ccc(Cl)cc2F)Oc2cccc(C3CCN(Cc4nc5c(F)c(-c6noc(=O)[nH]6)ccc5n4C[C@@H]4CCO4)CC3)c2O1 [Compound 34, 3-(2-((4-((S)-2-(4-chloro-2-fluorophenyl)-2-methylbenzo[d][1,3]dioxol-4-yl)piperidin-1-yl)methyl)-4-fluoro-1-(((S)-oxetan-2-yl)methyl)-1H-benzo[d]imidazol-5-yl)-1,2,4-oxadiazol-5(4H)-one] |
| < 1 | O=c1[nH]c(-c2ccc3c(nc(CN4CCC(c5cccc(OCc6ccc(Cl)cc6F)n5)CC4)n3C[C@@H]3CCO3)c2F)no1 [Compound 35, (S)-3-(2-((4-(6-((4-chloro-2-fluorobenzyl)oxy)pyridin-2-yl)piperidin-1-yl)methyl)-4-fluoro-1-(oxetan-2-ylmethyl)-1H-benzo[d]imidazol-5-yl)-1,2,4-oxadiazol-5(4H)-one] |
| < 1 | C[C@]1(c2ccc(Cl)cn2)Oc2cccc(C3CCN(Cc4nc5c(F)c(-c6noc(=O)[nH]6)ccc5n4C[C@@H]4CCO4)CC3)c2O1 [Compound 36, 3-(2-((4-((S)-2-(5-chloropyridin-2-yl)-2-methylbenzo[d][1,3]dioxol-4-yl)piperidin-1-yl)methyl)-4-fluoro-1-(((S)-oxetan-2-yl)methyl)-1H-benzo[d]imidazol-5-yl)-1,2,4-oxadiazol-5(4H)-one] |
